{"source": "patent US5605928A", "about": "“Antiemetic compositions” (Yissum Research Development Company of The Hebrew …, priority 1992, dated 1997)", "key": {"[1]": {"tested_on": "vomiting due to antineoplastic therapy", "experiment": "Previous antiemetic treatment of patient 1 with Metoclopromide", "type": "in vivo, human", "conditions": "patient 1, 0.3 mg/kg p.o. or i.v."}, "[2]": {"tested_on": "vomiting and nausea in cancer therapy", "experiment": "Comparison of delta-8-THC with delta-9-THC for antiemetic use (effectiveness, side effects)", "type": "in vivo, human", "conditions": "compared with delta-9-THC"}, "rhesus monkeys": {"tested_on": "rhesus monkeys", "experiment": "Acute oral toxicity, single doses", "type": "in vivo", "conditions": "single oral doses up to 9000 mg/kg", "protocol": "(§1) LD50 could not be determined in either rhesus monkeys or dogs as single oral doses of up to 9000 mg/kg of either delta-8- or delta-9-THC in dogs or monkeys were non lethal."}, "[3]": {"experiment": "Acute oral toxicity, single doses", "type": "in vivo", "conditions": "in vivo, single oral dose, read-out: LD50 (could not be determined; single oral doses up to this dose non lethal)", "protocol": "as §1"}, "dogs": {"tested_on": "dogs", "experiment": "Acute oral toxicity, single doses", "type": "in vivo", "conditions": "single oral doses up to 9000 mg/kg", "protocol": "as §1"}, "[4]": {"tested_on": "vomiting due to antineoplastic therapy", "experiment": "Preliminary trials ending the antiemetic therapy after first or second dose", "type": "in vivo, human", "conditions": "therapy ended after first or second dose, i.e. after 6 or 12 hrs", "protocol": "(§2) A study on vomiting due to antineoplastic therapy was carried out with 8 patients. Chemotherapy protocols of the types indicated in the Table almost invariable cause intense vomiting, which starts about 2 hrs after the initiation of chemotherapy and gradually ends over a 24 hr period. In preliminary trials we tried to end the antiemetic therapy after the first or second dose of the cannabinoid, i.e. after 6 or 12 hrs. […] In one case (patient) delta-8-THC therapy initially was refused. The patient experienced debilitating vomiting for 24 hrs after the antineoplastic treatment. During the second treatment cycle (which took place after 8 days), at the patient's family request, delta-8-THC treatment was initiated."}, "[5]": {"experiment": "Stability towards chemicals and oxidation, compared with delta-9-THC", "type": "physicochemical", "conditions": "compared with delta-9 isomer"}, "[6]": {"tested_on": "vomiting due to antineoplastic therapy in children with various blood cancers", "experiment": "Antiemetic trial of delta-8-THC in 8 children receiving antineoplastic therapy (prevention of vomiting, side effects)", "type": "in vivo, human (children)", "protocol": "In a trial, with 8 children of 3 to 13 years age, with various blood cancers, treated with a variety of antineoplastic drugs, 18 mg/m^2, in edible oil, p.o. of delta-8-THC was given two hours before the antineoplastic drug, and repeated every 6 hours of 24 hours. […] So far these children have received Δ^8 -THC nearly 500 times (see Table).\nEight children with various blood cancers were administered delta-8-THC at a dose of 18 mg/m^2 p.o. two hours before the start of the anticancer treatment. The drug was dissolved in corn or olive oil (6 mg/ml). The same dose was repeated every 6 hrs for 24 hrs. Whenever additional cycles of antineoplastic therapy were required, delta-8-THC was administered following the same time procedure described above. Children received delta-8-THC only during days when emetogenic drugs were administered.\nEstablished anticancer drug protocols were followed with all patients.\nas §2\nOur antiemetic protocol for cancer patients, to which we strictly adhere, consists of one dose of delta-8-THC (18 mg/m^2) 2 hours before chemotherapy, followed by the same dose every 6 hours for a total of 4 doses per day."}, "[7]": {"experiment": "Acute oral toxicity, single doses, observed for 7 days", "type": "in vivo", "conditions": "rat, in vivo; Fischer rats, male, single oral dose, observed 7 days; read-out: LD50, males"}, "Fischer rats": {"tested_on": "Fischer rats", "experiment": "Acute oral toxicity, single doses, observed for 7 days", "type": "in vivo", "conditions": "extremely high oral doses, delta-8- vs delta-9-THC"}, "[8]": {"tested_on": "vomiting and nausea in chemotherapy patients", "conditions": "cited from earlier work"}, "[9]": {"conditions": "chemotherapy of cancer, treated patients"}}, "note": "“Also recorded” adds a separate entry of the source. Read-outs that look alike come from different tables or passages of the source.", "data": [{"smiles": "CCN(CC)CCNC(=O)c1cc(Cl)c(N)cc1OC", "note": "[Metoclopromide]", "values": [{"measurement": "Prevention of vomiting", "setting": "[1]", "value": "failed to"}]}, {"smiles": "CCCCCc1cc(O)c2c(c1)OC(C)(C)[C@@H]1CC=C(C)C[C@@H]21", "note": "[delta-8-THC]", "values": [{"measurement": "Effectiveness for the intended (antiemetic) use", "setting": "[2]", "value": "at least as effective"}, {"measurement": "Side-effects", "setting": "[2]; especially in pediatric medicine", "value": "considerably reduced side-effects"}, {"measurement": "Histopathological alterations", "setting": "rhesus monkeys", "value": "did not occur"}, {"measurement": "LD50", "setting": "[3]; dog, dogs", "value": "> 9000", "unit": "mg/kg"}, {"measurement": "LD50", "setting": "[3]; rhesus monkey, rhesus monkeys", "value": "> 9000", "unit": "mg/kg"}, {"measurement": "Histopathological alterations", "setting": "dogs", "value": "did not occur"}, {"measurement": "Vomiting after ending antiemetic therapy early", "setting": "[4]", "value": "Vomiting started in most cases"}, {"measurement": "Proneness to oxidation", "setting": "[5]", "value": "less prone to oxidation"}, {"measurement": "Stability towards various chemicals", "setting": "[5]", "value": "considerably more stable"}, {"measurement": "Prevention of vomiting", "setting": "[6]; 8 children, 18 mg/m^2 p.o. in edible oil 2 h before antineoplastic drug, repeated every 6 h for 24 h", "value": "completely prevented; also recorded: no emesis was noted; also recorded: prevention of vomiting was complete"}, {"measurement": "Effect of antiemetic treatments: side effects per patient", "setting": "[6]; Table, individual child, 18 mg/m^2", "value": "no side effects; also recorded: slight irritability; also recorded: euphoria"}, {"measurement": "Anxiety or hallucinogenic effects", "setting": "[6]; children, 18 mg/m^2 p.o.", "value": "No anxiety or hallucinogenic effects were noted"}, {"measurement": "Side effects (overall)", "setting": "[6]; children, 18 mg/m^2 p.o., every 6 h for 24 h", "value": "negligible side effects; also recorded: minor: some irritability as slight euphoria; also recorded: without the occurrence of major side effects"}, {"measurement": "Vomiting in patient, second treatment cycle", "setting": "[6]; delta-8-THC initiated at second cycle after refusal in first cycle, 18 mg/m^2 p.o.", "value": "No vomiting occurred"}, {"measurement": "LD50 at 168 h", "setting": "[7]", "value": 1980, "unit": "mg/kg"}, {"measurement": "Histopathological changes", "setting": "Fischer rats", "value": "essentially the same"}]}, {"smiles": "CCCCCc1cc(O)c2c(c1)OC(C)(C)[C@@H]1CCC(C)=C[C@@H]21", "note": "[delta-9-THC, delta-9-tetrahydro-cannabinol, reference compound]", "values": [{"measurement": "Effect in the remaining patients", "setting": "[8]; chemotherapy of cancer, the rest of treated patients", "value": "little or no effect"}, {"measurement": "Patients in whom vomiting and nausea is prevented", "setting": "[8]; [9]", "value": "20 to 30", "unit": "per cent"}, {"measurement": "Patients in whom vomiting and nausea symptoms are reduced", "setting": "[8]; [9]", "value": "40 to 50", "unit": "per cent"}, {"measurement": "Pronounced side effects", "setting": "[8]; treated patients, pronounced with elderly patients", "value": "drowsiness, dizziness and in some cases--anxiety"}, {"measurement": "Side effects in younger patients", "setting": "[8]; younger patients", "value": "mainly mood changes"}, {"measurement": "Histopathological alterations", "setting": "rhesus monkeys", "value": "did not occur"}, {"measurement": "LD50", "setting": "[3]; dog, dogs", "value": "> 9000", "unit": "mg/kg"}, {"measurement": "LD50", "setting": "[3]; rhesus monkey, rhesus monkeys", "value": "> 9000", "unit": "mg/kg"}, {"measurement": "Histopathological alterations", "setting": "dogs", "value": "did not occur"}, {"measurement": "LD50 at 168 h", "setting": "[7]", "value": 1910, "unit": "mg/kg"}, {"measurement": "Histopathological changes", "setting": "Fischer rats", "value": "essentially the same"}]}]}
